The source of these data is US9802897B2, “Amidopyridinol derivative or pharmaceutically acceptable salt thereof and pharmaceutical composition comprising same as active component” (Research Cooperation Foundation of Yeungnam University, priority 2013, dated 2017).

Structures are written as SMILES. Like-named read-outs stand apart in the source and are kept apart here. Marks after values point to notes of the source that are not given here.

One experiment relates to cathepsin S. As to the kind of experiment: RT-PCR of cathepsin S gene expression in MDA-MB-231 cells. The class given is cell-based. Particulars: for inhibition at 1 µM: Homo sapiens, MDA-MB-231, 24 h, read-out: Inhibition rate of expression of cathepsin S (%); for effects for reducing expression of cathepsin S genes (in words): MDA-MB-231. The procedure:
Each compound of the present invention was treated with breast cancer cells (1×10^5 cell/cm^2), e.g., MDA-MB-231, and then, cultured at a temperature of 37° C. for 24 hours in a cell incubator. Afterwards, a trizole reagent was used to extract the entire mRNA therefrom. 24 hours later, the culture medium was removed therefrom, 1 mL of the triazole reagent was added to each well, and then, the cell elusion was transferred to a 1.5 mL tube. After 200 μl of chloroform was added to each sample, the samples were subjected to centrifugation at a temperature of 4° C., at 12,000 g, for 15 minutes. 500 μl of the supernatant obtained therefrom was transferred to a new tube. After 500 μl of isopropylalcohol was added to each sample, the samples were subjected to centrifugation at a temperature of 4° C., at 12,000 g, for 15 minutes. The supernatant obtained therefrom was removed from each sample, and then, the samples were washed with 75% ethanol to clean mRNA while the precipitants were dried. Then, mRNA extracted therefrom was dissolved in RNase-free water, followed by being heated at a temperature of 55° C. for 10 minutes.
After the RNA quantification, the GoScript™ reverse transcription system (Promega Corporation, Madison, Wis., USA) was used to synthesize cDNA. Here, PCR was performed by using TaKaRa Taq™ (Takara bio Inc., Shiga, Japan), wherein a primer set of cathepsin S consists of a forward primer having SEQ ID NO: 1 (forward sequence: 5′-GCAGTGGCACAGTTGCATAA-3′) and a reverse primer having SEQ ID NO: 2 (reverse sequence: 5′-AGCACCACAAGAACCCATGT-3′). After the PCR product was subjected to agarose gel electrophoresis, the PCR product was stained with ethidium bromide (0.5 μg/ml), thereby obtaining images thereof by using the gel imaging system (UVP, Cambridge, UK). Here, the PCR product was quantified based on glyceraldehyde 3-phosphate dehydrogenase (GAPDH). A GAPDH primer used herein consists of a forward primer having SEQ ID NO: 3 (forward sequence: 5′-GGTGAAGGTCGGAGTCAACG-3′) and a reverse primer having SEQ ID NO: 4 (reverse sequence: 5′-CAAAGTTGTCATGGATGACC-3′).
Furthermore, to screen other amidopyridinol derivatives that inhibit metastasis of breast cancer cells, inhibitory effects on expression of cathepsin S genes were reviewed by treating 1 μM of each compound, in the same manner as in Experimental Example 9.

Another experiment has as its system MDA-MB-231 cells. As to the kind of experiment: Transwell invasion assay of MDA-MB-231 breast cancer cells. Particulars: MDA-MB-231; for inhibition at 0.01 µM / inhibition at 0.1 µM / inhibition at 1 µM / inhibition at 10 µM: Homo sapiens, read-out: Inhibition rates of invasion of cancer cells (%). The class given is cell-based. The method, then:
The invasion assay was performed by using the transwell insert (BD FALCON, Bedford, USA) equipped with a 8 μm pore-sized filter. An upper part of the transwell insert filter was coated with 20 μl of matrigel (1 mg/ml) while a bottom part of the same was coated with 30 μl of type I collagen (0.5 mg/ml). The MDA-MB-231 cells (5×10^5 cells/100 μl) were added to the insert chamber, and then, each inhibitor was also added thereto. To induce invasion of the cells, a medium supplemented with 5% FBS was added to each well of the bottom chamber to allow a reaction at a temperature of 37° C. in a cell incubator. 18 hours later, the cells remained after removing the solution in the insert chamber were removed by using a cotton swab, whereas cells at the bottom of the membrane were fixed with methanol and stained with hematoxylin and eosin. The cells present at the membrane were observed through a microscope, and the number of the cells was counted in the selected 5 fields at the resolution of 200×.
According to the same manner as in Experimental Example 7, inhibitory effects of the amidopyridinol derivatives synthesized in Examples above on invasion of breast cancer cells, e.g., MDA-MB-231, were reviewed. Here, to compare with, inhibitory effects of aminopyridinol derivatives, e.g., 6-amino-2,4,5-trimethylpyridine-3-ol (BJ-1101) and 6-diphenylamino-2,4,5-trimethylpyridine-3-ol (BJ-1201), on invasion of breast cancer cells, e.g., MDA-MB-231, were reviewed.

In a further experiment the test system is HT-29 cells / U937 cells. As to the kind of experiment: TNF-α-induced adhesion of HT-29 intestinal epithelial cells and U937 mononuclear cells. The class given is cell-based, human. Particulars: 1 μM, pre-treated 1 hour, TNF-α 10 ng/ml; for inhibition at 1 µM: Homo sapiens, read-out: Inhibitory rates (%). The method, then:
HT-29 cells were cultured in a 24-well plate at a concentration of […] cells/cm^2, and meanwhile, amidopyridinol compounds 8a to 8z were pre-treated for 1 hour at each concentration in a serum-free medium supplemented only with 1% PS. Next, 10 ng/ml of TNF-α was treated therewith to allow a reaction at a temperature of 37° C. for 3 hours. After the completion of the reaction, the medium of the HT-29 cells was removed, and then, the HT-29 cells were washed with PBS once. Afterwards, U937 cells, which were treated and reacted with 10 μg/mL of BCECF-AM at a temperature of 37° C. for 30 minutes, were allowed to react with the HT-29 cells at temperature of 37° C. for 1 hour. Then, to remove U937 cells that were not adhered to the HT-29 cells, the reacted cells were washed with PBS twice. In terms of cell dissolution, 0.1% Triton X-100 in 0.1M Tris was allowed to react with the cells for 30 minutes at room temperature, and then, the cells were subjected to quantify by measuring fluorescence thereof using the Fluostar optima microplate reader (BMG Labtechnologies, Germany).

The subject of experiment [1] is VEGF-induced angiogenesis in chicken chorioallantoic membrane (CAM). As to the kind of experiment: CAM analysis of VEGF-induced angiogenesis. Type of experiment: in vivo. Particulars: VEGF (20 ng/CAM) + Compound (0.01 nmol/CAM), number of blood vessels after 3 days; for inhibition in vivo at 0.01 nmol/CAM: Gallus gallus, 72 h, read-out: Inhibitory rates (%). The procedure: To confirm inhibitory effects on angiogenesis through in vivo experiments, the chorioallantoic membrane (CAM) analysis was carried out (refer to Nguyen M et al., Microvascular Res., 47, pp 31-40, 1994). A fertilized egg of a chicken was cultured in conditions maintaining a temperature of 37° C. and relative humidity of 55%. On the 10th day of the culturing, a first small hole was made on an air sac part using a hypodermic needle (Green Cross Medical Corp., Korea), and then, a second hole was made on a flat part of the fertilized egg to make a window thereon. Air was removed through the first hole, i.e., the air sac part, and accordingly, the CAM was separated from the shell of the fertilized egg. Then, a grinding wheel (Multipro 395JA, Dremel, Mexico) was used to cut the air sac part, thereby making a window thereon. Next, the whatman filter disk #1 (Whatman Company, USA) was treated with 3 mg/mL of cortisone acetate, dried, and then, wet by VEGF at a concentration of 20 ng/CAM. The filter disk was placed on blood vessels through the window, and then, compounds prepared according to Examples above were each dissolved in DMSO, diluted with PBS, and then, treated for each concentration. After 3 days of treating the compounds, the CAM part on which the filter disk was placed was isolated, and then, washed with PBS. The Stemi SV6 stereomicroscope (Carl Zeiss, Germany) and the Image-Pro Plus software (Media Cybernetics; Silver Spring, Md., USA) were used to capture images of the CAM part, so as to measure the number of the blood vessels and to analyze data obtained therefrom.

The next experiment has as its system A549 lung cancer cells. As to the kind of experiment: CAM inoculated with A549 lung cancer cells: angiogenesis and tumor growth. Type of experiment: in vivo, chicken. Particulars: A549 on CAM, 5 days. The method, then:
To confirm inhibitory effects on angiogenesis through in vivo experiments, the CAM analysis was carried out (refer to Nguyen M et al., Microvascular Res., 47, pp 31-40, 1994). A fertilized egg of a chicken was cultured in conditions maintaining a temperature of 37° C. and relative humidity of 55%. On the 9th day of the culturing, a first small hole was made on an air sac part using a hypodermic needle (Green Cross Medical Corp., Korea), and then, a second hole was made on a flat part of the fertilized egg to make a window thereon. Air was removed through the first hole, i.e., the air sac part, and accordingly, the CAM was separated from the shell of the fertilized egg. Then, a grinding wheel (Multipro 395JA, Dremel, Mexico) was used to cut the air sac part, thereby making a window thereon. Meanwhile, A549 lung cancer cells were mixed with matrigel at a ratio of 1:1, and then, the mixture was treated with Compounds 8a, 8b, and 8g, respectively, followed by being inoculated at a density of 1.5×10^6 cells/CAM.
After 5 days of the inoculation, the CAM part on which tumors were formed was isolated, and then, washed with PBS. The Stemi SV6 stereomicroscope (Carl Zeiss, Germany) and the Image-Pro Plus software (Media Cybernetics; Silver Spring, Md., USA) were used to capture images of the CAM part, so as to measure the number of the blood vessels and to analyze data obtained therefrom.

Where [2] appears, read: 1 μM, MDA-MB-231, 24 hours, RT-PCR.

On to `Cc1nc(N)c(C)c(C)c1O` [BJ-1101, 6-amino-2,4,5-trimethylpyridine-3-ol], for which, in the experiment on cathepsin S (setting [2]), the inhibition at 1 µM came to 3.3 ± 0.82%. In addition, in the experiment on cathepsin S, the “effects for reducing expression of cathepsin S genes (in words)” value is “no effects for reducing expression of cathepsin S genes”. In addition, in the experiment with MDA-MB-231 cells, the inhibition at 0.01 µM turned out to be 0.45 ± 15.6%, the inhibition at 0.1 µM is 0%, the inhibition at 1 µM turned out to be 0.3 ± 31.8% and the inhibition at 10 µM stood at 1.73 ± 22.7%. Moreover, the “inhibitory effects on invasion of breast cancer cells (in words)” value in the experiment on MDA-MB-231 cells is “no inhibitory effects on invasion of breast cancer cells”.
Consider `Cc1nc(N(c2ccccc2)c2ccccc2)c(C)c(C)c1O` [BJ-1201, 6-diphenylamino-2,4,5-trimethylpyridine-3-ol], for which the inhibition at 1 µM in the experiment on cathepsin S (setting [2]) came out at 2.7 ± 0.12%. The “effects for reducing expression of cathepsin S genes (in words)” value in the experiment on cathepsin S was “no effects for reducing expression of cathepsin S genes”. Besides, in the experiment with MDA-MB-231 cells, the inhibition at 0.01 µM was determined as 2.52 ± 18.7%, the inhibition at 0.1 µM is 0%, the inhibition at 1 µM is 1.78 ± 22.1% and the inhibition at 10 µM was 1.96 ± 6.78%. Moreover, the “inhibitory effects on invasion of breast cancer cells (in words)” value in the experiment on MDA-MB-231 cells is listed as “no inhibitory effects on invasion of breast cancer cells”.
For the compound `Cc1nc(NC(=O)CC(C)C)c(C)c(C)c1O` [Compound 8e, N-(5-hydroxy-3,4,6-trimethylpyridine-2-yl)-3-methylbutanamide], the inhibition at 1 µM with HT-29 cells / U937 cells was determined as 64.2%. Further, the inhibition in vivo at 0.01 nmol/CAM in experiment [1] was 75.6 ± 8.9%.
On the same counts, the results for `Cc1nc(NC(=O)C2CCCCC2)c(C)c(C)c1O` [Compound 8h, N-(5-hydroxy-3,4,6-trimethylpyridine-2-yl)cyclohexane carboxamide] are 64.5% and 76.3 ± 7.2%.
Regarding `Cc1nc(NC(=O)Cc2ccccc2)c(C)c(C)c1O` [Compound 8i, N-(5-hydroxy-3,4,6-trimethylpyridine-2-yl)-2-penylacetamide], the “Inhibitory rates (%)” value in the experiment on HT-29 cells / U937 cells is listed as 56.6* %; in experiment [1], 69.6 ± 11.0 %.
With `Cc1nc(NC(=O)c2ccccc2)c(C)c(C)c1O` [Compound 8k, N-(5-hydroxy-3,4,6-trimethylpyridine-2-yl)benzamide], the inhibition at 1 µM in the experiment with HT-29 cells / U937 cells amounted to 18.5%. Further, the inhibition in vivo at 0.01 nmol/CAM in experiment [1] was found to be 77.3 ± 13.1%.
With `COc1ccc(C(=O)Nc2nc(C)c(O)c(C)c2C)cc1` [Compound 8m, N-(5-hydroxy-3,4,6-trimethylpyridine-2-yl)-4-methoxybenzamide], the inhibition at 1 µM in the experiment on HT-29 cells / U937 cells was 13.9%. For the same compound, the inhibition in vivo at 0.01 nmol/CAM in experiment [1] is 69.7 ± 4.5%.
On the same counts, the results for `Cc1nc(NC(=O)c2ccc3c(c2)OCO3)c(C)c(C)c1O` [Compound 8o, N-(5-hydroxy-3,4,6-trimethylpyridine-2-yl)benzo[d][1,3]dioxol-5-carboxamide] are 40.2% and 64.8 ± 17.4%.
Consider `CCC(CC)C(=O)Nc1nc(C)c(O)c(C)c1C` [Compound 8r, 2-ethyl-N-(5-hydroxy-3,4,6-trimethylpyridine-2-yl)butanamide], for which the inhibition at 1 µM in the experiment with cathepsin S (screening, 1 μM of each compound, MDA-MB-231, RT-PCR) turned out to be 3.9 ± 0.22%; with HT-29 cells / U937 cells, 4.2%.
In the case of `CN(C)c1ccc(/C=C2\C(=O)Nc3ccccc32)cc1` [SU4312, reference compound], the “Inhibition rates of angiogenesis (%)” value with A549 lung cancer cells (0.01 pmol/CAM) came to 20.8 ± 1.4 %; in the experiment on A549 lung cancer cells (0.1 pmol/CAM), 25.1 ± 2.8 %; in the experiment on A549 lung cancer cells (1.0 pmol/CAM), 36.2 ± 1.9 %. The “Inhibition rates of tumor growth (%)” value in the experiment with A549 lung cancer cells (0.01 pmol/CAM) was found to be 16.2 ± 20.4%; in the experiment on A549 lung cancer cells (0.1 pmol/CAM) it was 23.4 ± 9.3%; with A549 lung cancer cells (1.0 pmol/CAM) it was 26.8 ± 4.9%. Further, in experiment [1], the “Inhibitory rates (%)” value was 74.6 ± 8.5 %.
